Data as given in patent US9222059B2, “Cleaning formulations with improved surfactant solubility and methods of production and use thereof” (The Sun Products Corporation, priority 2011, dated 2015).
Read-outs that look alike come from different tables or passages of the source.

Assays:
[1] = Storage stability (Pass/Fail) of base liquid detergent formulation with 9.5% EMES plus candidate hydrotrope; assay type: physicochemical; parameters: key: a sample was said to “Pass” if it remained a clear isotropic liquid at the indicated challenge temperature; a sample was said to “Fail” if it showed any of the above-described evidence of instability or insolubility
[2] = Interfacial surface tension / CMC (detergency), pendant drop method, Kruss DSA100; assay type: physicochemical; settings: 0 to 250 ppm in water; FIG. 1
Description: First, we addressed the fact that MES has typically been thought of as a component that can show poor detergency. A surfactant's cleaning performance (i.e., detergency) can be measured directly by an examination of its interfacial tension (IFT) as a function of its critical micelle concentration (CMC, the concentration where the surfactant's monomers arrange themselves in a spherical shape so that their hydrophobic tails can trap oil). We therefore wanted to examine the suitability of various surfactants, including various types of MES, for use in reducing surface tension (i.e., detergency) over various surfactant concentrations. Surfactants were titrated in water at concentrations from 0 to 250 ppm (which is typical of “in use” conditions for surfactant formulations in household laundry methods), and the interfacial surface tension of these solutions was measured as a function of concentration using the pendant drop method on a Kruss DSA100 drop shape analyzer. […] As one of ordinary skill will readily understand, other tensiometric methods of determining interfacial surface tension can also be used, for example using a Du Nouy ring, drop volume, or bubble tensiometer; suitable instrumentation and methods for measuring surface tension using such approaches are well-known in the art. […]

[3] = Rheology, 40 mm circular plate rheometer (flowability/pumpability); assay type: physicochemical; settings: agent at about 5% to about 8%; results not shown
Method: A solution of 35% EMES+7% C8 amine oxide in water was prepared as described in the foregoing examples. […] The rheology of the solution was then tested using a 40 mm circular plate rheometer. A conditioning step was performed which brought the plate to 25° C., and a pre-shear step was carried out at 0.7958 Pa for 30 sec, and then the device was equilibrated until it reached 0 velocity. Then the main continuous ramp step began on the solution, which ran for 1 minute, and the shear stress was increased from 0.1 to 250 Pa. A total of 15 data points were collected, and the device remained at 25° C. the entire time. […] Solutions of about 40% or more EMES, however, required a slightly higher amine oxide content to remain flowable and pumpable, but the shear stress necessary was inordinately high. Therefore, for applications in which it may be desirable to pump the surfactant formulation, it is preferable to use 35% or lower EMES in the formulation.
We also evaluated whether or not inclusion of one or more additional components in the solution would improve the pumpability of high concentration EMES formulations. Specifically, ethanol or glycerine at about 5% to about 8% were included in formulations containing 35% EMES/7% C8 amine oxide.

[4] = Liquid stability / solubility of high-concentration EMES in water with C8 amine oxide; settings: 25% EMES, about 2% C8 AO; FIG. 6b
Method: Similar approaches were taken for examining the impact of increasing EMES concentration on liquid stability (i.e., examining the solubility of the surfactant in solution at a given concentration), and the ability of hydrotropes to improve EMES solubility. Specifically, samples of EMES in water were prepared at different concentrations and observed as described above for any evidence of instability or poor solubility.

[5] = material 2.00 % w/v in base detergent with 9.5% EMES, 3 cycles, -20° C.
[6] = material 2.00 % w/v in base detergent with 9.5% EMES, 52 weeks
[7] = material 2.00 % w/v in base detergent with 9.5% EMES, 1 week
[8] = material 2.00 % w/v in base detergent with 9.5% EMES, 12 weeks

Molecule | 40° F. storage [1] | 105° F. storage [1] | 125° F. storage [1] | Freeze/Thaw storage [1, 5] | Room Temp. storage [1, 6] | other results
Akkylglucoside [AG6206] | Fail | Pass | Pass | Pass | Pass | –
CC(O)CO (stereo not shown) [Propylene glycol, Propylene glycol (1,2-propane diol), reference compound] | – | – | – | Pass | Pass | 125° F. storage [1, 7]: Pass; 40° F. storage [1, 8]: Fail; 105° F. storage [1, 8]: Pass
Sodium xylene sulfonate [reference compound] | Fail | Pass | Pass | – | – | Freeze/Thaw storage [1]: Pass; Room Temp. storage [1]: Pass
CCCCCCCCCCCC(=O)OCCOCCOCCOCCOCCOCCOCCOCCOCCOCCOCCOCCOCCOCCOCCOCCOCCOCCOCCOCCOCC(OCCOCCOCCOCCOCCOCCOCCOCCOCCOCCOCCOCCOCCOCCOCCOCCOCCOCCOCCOCCO)C1OCC(OCCOCCOCCOCCOCCOCCOCCOCCOCCOCCOCCOCCOCCOCCOCCOCCOCCOCCOCCOCCO)C1OCCOCCOCCOCCOCCOCCOCCOCCOCCOCCOCCOCCOCCOCCOCCOCCOCCOCCOCCOCCO (stereo not shown) [Tween 20, Polysorbate 20] | Fail | Pass | Pass | – | – | Freeze/Thaw storage [1]: Pass; Room Temp. storage [1]: Pass
Methyl ester sulfonate [MES] | – | – | – | – | – | critical micelle concentration (CMC), compared with LAS, SLES [2]: reaches its CMC the quickest; interfacial tension (IFT), compared with LAS, SLES [2]: lowest IFT at each concentration measured
Lauramine oxide [Ammonyx LO] | Fail | Pass | Pass | Pass | Pass | –
CCO [Ethanol, Ethyl alcohol, reference compound] | – | – | – | Pass | Pass | 125° F. storage [1, 7]: Pass; 40° F. storage [1, 8]: Fail; 105° F. storage [1, 8]: Pass; flowability of 35% EMES/7% C8 amine oxide with added agent [3]: worse
CCCCCCCCCC[N+](C)(C)[O-] [Genamino x DC40, Decyl dimethyl amine oxide] | Fail | Pass | Pass | Pass | Pass | –
Glycerine (propane 1,2,3-triol) [reference compound] | Fail | Pass | Pass | – | – | Freeze/Thaw storage [1]: Pass; Room Temp. storage [1]: Pass; flowability of 35% EMES/7% C8 amine oxide with added agent [3]: worse
CCCCCCCC[N+](C)(C)[O-] [Synthetic C8 3853-01, Octyl dimethyl amine oxide] | Pass | Pass | Pass | Pass | Pass | –
C[N+](C)(C)CC(=O)O [Tomamine LH, Betaine] | Fail | Pass | Pass | Pass | Pass | –
CCCCCCCC[N+](C)(C)[O-] [C8 AO, octyl dimethyl amine oxide] | – | – | – | – | – | appearance of EMES solution with hydrotrope [4]: nearly clear, isotropic solution
